Measurements from patent US20020035061A1, “COMPOSITIONS AND METHODS FOR TREATING INFECTIONS USING CATIONIC PEPTIDES ALONE OR IN COMBINATION WITH ANTIBIOTICS” (priority 1996, published 2002).

Experiments:
Test in all cases: microbe, parasite or virus in culture
Format in all cases: cell-based
[1] = test system: vancomycin / teicoplanin resistant enterococci; settings: for Vancomycin MIC + Peptide: in combination with the labelled peptide; for Peptide MIC + Vancomycin: in combination with vancomycin
S. aureus = S. aureus SA25
[2] = test system: inherently resistant microorganisms; settings: B. cepacia
[3] = test system: microorganisms with acquired resistance
bacterial isolates = test system: bacterial isolates

Sequence: KWKSFIKKLTSAAKKVLTTGLPALIS [MBI 29A3]
- Amikacin MIC + Peptide ([1]; E. faecium EFM004): 8 µg/mL
- Peptide MIC + Amikacin ([1]; E. faecium EFM004): 4 µg/mL
- Amikacin MIC + Peptide ([1]; E. faecium EFM020): 16 µg/mL
- Peptide MIC + Amikacin ([1]; E. faecium EFM020): 2 µg/mL
- Vancomycin MIC + Peptide ([1]; E. faecalis EFS005): 1 µg/mL
- Vancomycin MIC + Peptide ([1]; E. faecalis EFS011): 4 µg/mL
- Vancomycin MIC + Peptide ([1]; E. faecalis EFS014): 1 µg/mL
- Vancomycin MIC + Peptide ([1]; E. faecium EFM006): 4 µg/mL
- Peptide MIC + Vancomycin ([1]; E. faecalis EFS005): 4 µg/mL
- Peptide MIC + Vancomycin ([1]; E. faecalis EFS011): 8 µg/mL
- Peptide MIC + Vancomycin ([1]; E. faecalis EFS014): 0.5 µg/mL
- Peptide MIC + Vancomycin ([1]; E. faecium EFM006): 2 µg/mL
- Ciprofloxacin MIC + Peptide (S. aureus): 1 µg/mL
- Peptide MIC + Ciprofloxacin (S. aureus): 0.5 µg/mL
- Peptide MIC + Amikacin [2]: 32 µg/mL
- Peptide MIC Alone ([2]; Amikacin section): >128 µg/mL
- Gentamicin MIC + Peptide ([3]; A. baumannii ABI002): 4 µg/mL
- Peptide MIC + Gentamicin ([3]; A. baumannii ABI002): 1 µg/mL
- Peptide MIC Alone ([3]; A. baumannii ABI002, Gentamicin section): 2 µg/mL
- Peptide MIC + Tobramycin ([3]; E. coli EC0006): 2 µg/mL
- Tobramycin MIC + Peptide ([3]; E. coli EC0006): 2 µg/mL
- Peptide MIC Alone ([3]; E. coli EC0006, Tobramycin section): 4 µg/mL
- Peptide MIC + Tobramycin ([3]; P. aeruginosa PA022): 0.25 µg/mL
- Tobramycin MIC + Peptide ([3]; P. aeruginosa PA022): 4 µg/mL
- Peptide MIC Alone ([3]; P. aeruginosa PA022, Tobramycin section): 4 µg/mL
- Gentamicin MIC + Peptide ([3]; P. aeruginosa PA041): 4 µg/mL
- Peptide MIC + Gentamicin ([3]; P. aeruginosa PA041): 4 µg/mL
- Ciprofloxacin MIC + Peptide ([3]; P. aeruginosa PA41): 0.5 µg/mL
- Peptide MIC + Ciprofloxacin ([3]; P. aeruginosa PA41): 4 µg/mL
- Peptide MIC Alone ([3]; P. aeruginosa PA41, Ciprofloxacin section): 8 µg/mL
- Peptide MIC Alone ([3]; P. aeruginosa PA041, Gentamicin section): 8 µg/mL
- Peptide MIC ([3]; S. aureus, combination with Mupirocin, in µg/mL): 4
- Peptide MIC + Tobramycin ([3]; S. maltophilia SMA027): 16 µg/mL
- Tobramycin MIC + Peptide ([3]; S. maltophilia SMA027): 4 µg/mL
- Peptide MIC Alone ([3]; S. maltophilia SMA027, Tobramycin section): 32 µg/mL
- Peptide MIC + Tobramycin ([3]; S. maltophilia SMA029): 4 µg/mL
- Tobramycin MIC + Peptide ([3]; S. maltophilia SMA029): 4 µg/mL
- Peptide MIC Alone ([3]; S. maltophilia SMA029, Tobramycin section): 16 µg/mL
- FIC ([3]; peptide + Tobramycin, E. coli EC0006): 0.75
- Peptide MIC Alone (bacterial isolates; 1. Amikacin, B. cepacia BC003): >128 µg/mL
- Peptide MIC Alone (bacterial isolates; 1. Amikacin, B. cepacia BC005): >128 µg/mL
- Peptide MIC Alone (bacterial isolates; 1. Amikacin, E. faecium EFM004): 8 µg/mL
- Peptide MIC Alone (bacterial isolates; 1. Amikacin, S. maltophilia SMA036): 64 µg/mL
- Peptide MIC Alone (bacterial isolates; 1. Amikacin, S. maltophilia SMA063): 8 µg/mL
- Peptide MIC Alone (bacterial isolates; 1. Amikacin, S. maltophilia SMA064): 8 µg/mL
- Peptide MIC Alone (bacterial isolates; 4. Gentamicin, S. maltophilia SMA019): 2 µg/mL
- Peptide MIC Alone (bacterial isolates; 4. Gentamicin, S. maltophilia SMA021): 2 µg/mL
- Amikacin MIC + Peptide (bacterial isolates; B. cepacia BC003): 8 µg/mL
- Peptide MIC + Amikacin (bacterial isolates; B. cepacia BC003): 64 µg/mL
- Amikacin MIC + Peptide (bacterial isolates; B. cepacia BC005): 32 µg/mL
- Peptide MIC + Amikacin (bacterial isolates; B. cepacia BC005): 32 µg/mL
- Peptide MIC + Vancomycin (bacterial isolates; E. faecalis EFS003): 2 µg/mL
- Vancomycin MIC + Peptide (bacterial isolates; E. faecalis EFS003): 2 µg/mL
- Peptide MIC + Vancomycin (bacterial isolates; E. faecalis EFS005): 1 µg/mL
- Vancomycin MIC + Peptide (bacterial isolates; E. faecalis EFS005): 4 µg/mL
- Peptide MIC + Vancomycin (bacterial isolates; E. faecalis EFS011): 8 µg/mL
- Vancomycin MIC + Peptide (bacterial isolates; E. faecalis EFS011): 4 µg/mL
- Peptide MIC + Vancomycin (bacterial isolates; E. faecalis EFS014): 0.5 µg/mL
- Vancomycin MIC + Peptide (bacterial isolates; E. faecalis EFS014): 1 µg/mL
- Amikacin MIC + Peptide (bacterial isolates; E. faecium EFM004): 8 µg/mL
- Peptide MIC + Amikacin (bacterial isolates; E. faecium EFM004): 4 µg/mL
- Peptide MIC + Vancomycin (bacterial isolates; E. faecium EFM006): 2 µg/mL
- Vancomycin MIC + Peptide (bacterial isolates; E. faecium EFM006): 4 µg/mL
- Mupirocin MIC + Peptide (bacterial isolates; P. aeruginosa PA2): 0.1 µg/mL
- Peptide MIC + Mupirocin (bacterial isolates; P. aeruginosa PA2): 16 µg/mL
- Mupirocin MIC + Peptide (bacterial isolates; P. aeruginosa PA3): 0.1 µg/mL
- Peptide MIC + Mupirocin (bacterial isolates; P. aeruginosa PA3): 8 µg/mL
- Peptide MIC + Tobramycin (bacterial isolates; P. aeruginosa PA022): 0.25 µg/mL
- Tobramycin MIC + Peptide (bacterial isolates; P. aeruginosa PA022): 4 µg/mL
- Ciprofloxacin MIC + Peptide (bacterial isolates; P. aeruginosa PA24): 16 µg/mL
- Peptide MIC + Ciprofloxacin (bacterial isolates; P. aeruginosa PA24): 0.125 µg/mL
- Peptide MIC + Tobramycin (bacterial isolates; P. aeruginosa PA028): 0.125 µg/mL
- Tobramycin MIC + Peptide (bacterial isolates; P. aeruginosa PA028): 16 µg/mL
- Peptide MIC + Tobramycin (bacterial isolates; P. aeruginosa PA029): 0.125 µg/mL
- Tobramycin MIC + Peptide (bacterial isolates; P. aeruginosa PA029): 16 µg/mL
- Ciprofloxacin MIC + Peptide (bacterial isolates; P. aeruginosa PA41): 0.5 µg/mL
- Peptide MIC + Ciprofloxacin (bacterial isolates; P. aeruginosa PA41): 4 µg/mL
- Ciprofloxacin MIC + Peptide (bacterial isolates; S. aureus SA10): 16 µg/mL
- Peptide MIC + Ciprofloxacin (bacterial isolates; S. aureus SA10): 0.5 µg/mL
- Ciprofloxacin MIC + Peptide (bacterial isolates; S. aureus SA25): 2 µg/mL
- Peptide MIC + Ciprofloxacin (bacterial isolates; S. aureus SA25): 0.125 µg/mL
- Gentamicin MIC + Peptide (bacterial isolates; S. maltophilia SMA019): 16 µg/mL
- Peptide MIC + Gentamicin (bacterial isolates; S. maltophilia SMA019): 0.125 µg/mL
- Gentamicin MIC + Peptide (bacterial isolates; S. maltophilia SMA021): 16 µg/mL
- Peptide MIC + Gentamicin (bacterial isolates; S. maltophilia SMA021): 0.125 µg/mL
- Peptide MIC + Tobramycin (bacterial isolates; S. maltophilia SMA029): 4 µg/mL
- Tobramycin MIC + Peptide (bacterial isolates; S. maltophilia SMA029): 4 µg/mL
- Peptide MIC + Tobramycin (bacterial isolates; S. maltophilia SMA030): 4 µg/mL
- Tobramycin MIC + Peptide (bacterial isolates; S. maltophilia SMA030): 4 µg/mL
- Amikacin MIC + Peptide (bacterial isolates; S. maltophilia SMA036): 32 µg/mL
- Peptide MIC + Amikacin (bacterial isolates; S. maltophilia SMA036): 16 µg/mL
- Amikacin MIC + Peptide (bacterial isolates; S. maltophilia SMA063): 16 µg/mL
- Peptide MIC + Amikacin (bacterial isolates; S. maltophilia SMA063): 4 µg/mL
- Amikacin MIC + Peptide (bacterial isolates; S. maltophilia SMA064): 16 µg/mL
- Peptide MIC + Amikacin (bacterial isolates; S. maltophilia SMA064): 4 µg/mL
- Mupirocin MIC + Peptide (bacterial isolates; S. marcescens SBSM1): 100 µg/mL
- Peptide MIC + Mupirocin (bacterial isolates; S. marcescens SBSM1): 16 µg/mL
- Mupirocin MIC + Peptide (bacterial isolates; S. marcescens SBSM2): 100 µg/mL
- Peptide MIC + Mupirocin (bacterial isolates; S. marcescens SBSM2): 64 µg/mL
- FIC (bacterial isolates; peptide + Amikacin, B. cepacia BC003): 0.50
- FIC (bacterial isolates; peptide + Amikacin, B. cepacia BC005): 0.38
- FIC (bacterial isolates; peptide + Amikacin, E. faecium EFM004): 0.56
- FIC (bacterial isolates; peptide + Amikacin, S. maltophilia SMA036): 0.38
- FIC (bacterial isolates; peptide + Amikacin, S. maltophilia SMA063): 0.56
- FIC (bacterial isolates; peptide + Amikacin, S. maltophilia SMA064): 0.56
- FIC (bacterial isolates; peptide + Ciprofloxacin, P. aeruginosa PA24): 0.50
- FIC (bacterial isolates; peptide + Ciprofloxacin, P. aeruginosa PA41): 0.63
- FIC (bacterial isolates; peptide + Ciprofloxacin, S. aureus SA10): 0.75
- FIC (bacterial isolates; peptide + Ciprofloxacin, S. aureus SA25): 0.63
- FIC (bacterial isolates; peptide + Mupirocin, P. aeruginosa PA2): 0.50
- FIC (bacterial isolates; peptide + Mupirocin, P. aeruginosa PA3): 0.50
- FIC (bacterial isolates; peptide + Mupirocin, S. marcescens SBSM1): 0.16
- FIC (bacterial isolates; peptide + Mupirocin, S. marcescens SBSM2): 0.35
- FIC (bacterial isolates; peptide + Vancomycin, E. faecalis EFS003): 0.56
- FIC (bacterial isolates; peptide + Vancomycin, E. faecalis EFS005): 0.28
- FIC (bacterial isolates; peptide + Vancomycin, E. faecalis EFS011): 0.50
- FIC (bacterial isolates; peptide + Vancomycin, E. faecalis EFS014): 0.52
- FIC (bacterial isolates; peptide + Vancomycin, E. faecium EFM006): 0.52
